Source: article PMC8708872, “Discovery of a Novel Template, 7-Substituted 7-Deaza-4′-Thioadenosine Derivatives as Multi-Kinase Inhibitors” (Pharmaceuticals, 2021)

What was measured:
CK1δ = biological target: T1, CK1δ (Homo sapiens, UniProt P48730); assay: Kinase inhibition profile, KINOMEscan 11-point dose response; assay type: binding; conditions: for IC50: 11-point 3-fold serial dilution; for Ki: by Cheng-Prusoff equation
T1 construct: purchased Eurofins DiscoverX Corporation

DYRK1B = biological target: T2, DYRK1B (Homo sapiens, UniProt Q9Y463); assay: as above; assay type: binding; conditions: for IC50: 11-point 3-fold serial dilution; for Ki: by Cheng-Prusoff equation
T2 construct: purchased Eurofins DiscoverX Corporation

TRKA = biological target: T3, TRKA (Homo sapiens, UniProt P04629); assay: as above; assay type: binding; conditions: for IC50: 11-point 3-fold serial dilution; for Ki: by Cheng-Prusoff equation
T3 construct: purchased Eurofins DiscoverX Corporation

DYRK1A = biological target: T4, DYRK1A (Homo sapiens, UniProt Q13627); assay: as above; assay type: binding; conditions: for IC50: 11-point 3-fold serial dilution; for Ki: by Cheng-Prusoff equation
T4 construct: purchased Eurofins DiscoverX Corporation

MDA-MB-231 = assay: SRB cell proliferation inhibition assay; assay type: cell-based; conditions: human breast cancer cells, 72 h
Protocol: (§1) Human lung cancer cells (A549), colorectal cancer (HCT116) cells, breast cancer cells (MDA-MB-231), liver cancer cells (SK-HEP-1), and prostate cancer cells (PC-3) were purchased from the American Type Culture Collection (Manassas, VA, USA). Human gastric cancer cells (SNU-638) were purchased from the Korean Cell Line Bank (Seoul, Korea). Cells were cultured in medium (Dulbecco’s modified Eagle’s medium for MDA-MB-231 and SK-HEP-1 cells; Roswell Park Memorial Institute 1640 for A549, HCT116, SNU-638, PC-3 cells) supplemented with penicillin-streptomycin and 10% fetal bovine serum at 37 °C in a humidified incubator with 5% carbon dioxide. Cells were seeded at a density of 4–7 × 10^4 cells/mL in 96-well culture plates, and then treated with indicated compounds for 72 h. At the end of the experiment, cells were fixed with 10% trichloroacetic acid (TCA) solution and subjected to sulforhodamine B (SRB) assay to determine cell proliferation. The percentage of cell proliferation was calculated with the following formula:Cell proliferation (%) = 100 × [(A treated − A zero day)/(A control − A zero day)], where A is the average absorbance. The IC50 values were calculated through non-linear regression analysis using TableCurve 2D v5.01 (Systat Software Inc., San Jose, CA, USA). All experiments were performed in triplicate and data shown are representative of two or three independent experiments.

HCT116 = assay: SRB cell proliferation inhibition assay; assay type: cell-based; conditions: HCT-116, human colon cancer cells, 72 h
Protocol: as §1

A549 = assay: SRB cell proliferation inhibition assay; assay type: cell-based; conditions: human lung cancer cells, 72 h
Protocol: as §1

SK-HEP-1 = assay: SRB cell proliferation inhibition assay; assay type: cell-based; conditions: SK-HEP1, human liver cancer cells, 72 h
Protocol: as §1

SNU638 = assay: SRB cell proliferation inhibition assay; assay type: cell-based; conditions: SNU-638, human stomach cancer cells, 72 h
Protocol: as §1

PC-3 = assay: SRB cell proliferation inhibition assay; assay type: cell-based; conditions: human prostate cancer cells, 72 h
Protocol: as §1

T2 sequence (Q9Y463 whole entry): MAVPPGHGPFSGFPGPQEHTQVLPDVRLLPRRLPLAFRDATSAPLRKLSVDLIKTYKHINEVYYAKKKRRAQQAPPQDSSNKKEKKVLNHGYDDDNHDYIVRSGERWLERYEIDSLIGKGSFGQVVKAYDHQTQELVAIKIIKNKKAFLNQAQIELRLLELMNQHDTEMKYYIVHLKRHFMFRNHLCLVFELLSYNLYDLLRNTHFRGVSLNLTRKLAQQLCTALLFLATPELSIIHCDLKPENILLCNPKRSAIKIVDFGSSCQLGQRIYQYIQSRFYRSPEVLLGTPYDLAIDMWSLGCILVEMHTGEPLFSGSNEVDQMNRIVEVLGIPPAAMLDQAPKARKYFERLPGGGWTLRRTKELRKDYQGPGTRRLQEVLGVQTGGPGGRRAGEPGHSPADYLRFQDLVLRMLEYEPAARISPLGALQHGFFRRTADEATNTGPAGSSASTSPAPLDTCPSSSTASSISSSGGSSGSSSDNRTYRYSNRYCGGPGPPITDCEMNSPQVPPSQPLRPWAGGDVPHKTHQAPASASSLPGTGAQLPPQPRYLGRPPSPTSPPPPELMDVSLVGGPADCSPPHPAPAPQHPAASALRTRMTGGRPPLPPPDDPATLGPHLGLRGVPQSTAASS
T3 sequence (P04629 33-796): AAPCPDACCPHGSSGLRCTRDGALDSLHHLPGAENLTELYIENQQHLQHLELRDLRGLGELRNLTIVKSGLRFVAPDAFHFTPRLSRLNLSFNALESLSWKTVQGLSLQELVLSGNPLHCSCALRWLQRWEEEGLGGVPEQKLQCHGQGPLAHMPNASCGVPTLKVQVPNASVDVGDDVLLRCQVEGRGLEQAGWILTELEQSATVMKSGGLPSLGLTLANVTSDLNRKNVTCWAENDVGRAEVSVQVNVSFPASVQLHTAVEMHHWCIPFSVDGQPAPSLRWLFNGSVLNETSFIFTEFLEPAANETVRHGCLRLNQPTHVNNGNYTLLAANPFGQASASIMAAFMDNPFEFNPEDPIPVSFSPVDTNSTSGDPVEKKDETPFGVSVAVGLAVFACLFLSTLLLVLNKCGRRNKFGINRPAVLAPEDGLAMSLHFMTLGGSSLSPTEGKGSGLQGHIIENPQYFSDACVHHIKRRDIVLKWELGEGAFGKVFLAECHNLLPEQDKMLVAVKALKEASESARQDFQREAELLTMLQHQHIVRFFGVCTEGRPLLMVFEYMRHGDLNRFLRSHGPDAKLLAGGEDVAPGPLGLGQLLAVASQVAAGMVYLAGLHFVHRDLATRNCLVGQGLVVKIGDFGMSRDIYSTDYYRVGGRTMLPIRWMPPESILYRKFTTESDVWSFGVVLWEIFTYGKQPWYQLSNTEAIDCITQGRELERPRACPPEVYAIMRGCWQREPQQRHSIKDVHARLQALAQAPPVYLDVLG
T1 sequence (P48730 whole entry): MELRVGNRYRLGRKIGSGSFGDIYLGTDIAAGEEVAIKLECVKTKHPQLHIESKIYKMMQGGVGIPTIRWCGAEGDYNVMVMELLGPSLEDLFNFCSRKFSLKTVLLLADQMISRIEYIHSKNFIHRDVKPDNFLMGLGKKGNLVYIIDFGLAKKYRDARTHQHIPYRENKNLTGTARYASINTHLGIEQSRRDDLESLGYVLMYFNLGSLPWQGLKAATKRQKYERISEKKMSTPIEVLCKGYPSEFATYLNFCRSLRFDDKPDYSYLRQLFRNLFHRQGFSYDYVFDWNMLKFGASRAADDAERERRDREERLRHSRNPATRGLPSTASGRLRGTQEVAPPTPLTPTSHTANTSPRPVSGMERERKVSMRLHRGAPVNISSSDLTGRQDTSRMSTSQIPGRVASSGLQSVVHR

Row | IC50 (CK1δ) [nM] | IC50 (DYRK1B) [nM] | Ki (DYRK1B) [nM] | IC50 (TRKA) [nM] | IC50 (DYRK1A) [nM] | Ki (DYRK1A) [nM] | Ki (CK1δ) [nM] | Ki (TRKA) [nM] | IC50 (MDA-MB-231) [nM] | IC50 (HCT116) [nM] | IC50 (A549) [nM] | IC50 (SK-HEP-1) [nM] | IC50 (SNU638) [nM] | IC50 (PC-3) [nM] | melting point [°C] | Compound
1 | > 10000 | 50 | 50 | > 10000 | 14 | 28 | – | – | – | – | – | – | – | – | – | Cc1nccc(-c2cn(Cc3ccccc3)c3cnccc23)n1 [AZ Dyrk1B 33, reference compound]
2 | 123 | 14 | 14 | 37 | 15 | 30 | 123 | 74 | 3310 | 2160 | 1020 | 3380 | 1950 | 2460 | 197 to 199 | Nc1ncnc2c1c(-c1ccco1)cn2[C@@H]1S[C@H](CO)[C@@H](O)[C@H]1O [Compound 1a, (2R,3R,4S,5R)-2-(4-Amino-5-(furan-2-yl)-7H-pyrrolo[2,3-d]pyrimidin-7-yl)-5-(hydroxymethyl)tetrahydrothiophene-3,4-diol]
3 | 18 | 117 | 117 | 11 | 166 | 332 | – | 22 | 2720 | 1740 | 1650 | 1380 | 2410 | 2480 | 166 to 172 | Nc1ncnc2c1c(-c1cccs1)cn2[C@@H]1S[C@H](CO)[C@@H](O)[C@H]1O [Compound 1b, (2R,3R,4S,5R)-2-(4-Amino-5-(thiophen-2-yl)-7H-pyrrolo[2,3-d]pyrimidin-7-yl)-5-(hydroxymethyl)tetrahydrothiophene-3,4-diol]
4 | 77 | 86 | 86 | 474 | 112 | 224 | 77 | 948 | 310 | 560 | 970 | 220 | 470 | 200 | 110 to 112 | C=Cc1cn([C@@H]2S[C@H](CO)[C@@H](O)[C@H]2O)c2ncnc(N)c12 [Compound 1c, (2R,3R,4S,5R)-2-(4-Amino-5-vinyl-7H-pyrrolo[2,3-d]pyrimidin-7-yl)-5-(hydroxymethyl)tetrahydrothiophene-3,4-diol]
5 | 27 | 288 | 288 | 157 | 357 | 714 | 27 | 314 | 8830 | 6350 | 7570 | 7810 | 6320 | 9210 | 102 to 104 | Nc1ncnc2c1c(-c1ccccc1)cn2[C@@H]1S[C@H](CO)[C@@H](O)[C@H]1O [Compound 1d, (2R,3R,4S,5R)-2-(4-Amino-5-phenyl-7H-pyrrolo[2,3-d]pyrimidin-7-yl)-5-(hydroxymethyl)tetrahydrothiophene-3,4-diol]
6 | > 10000 | > 10000 | – | > 10000 | > 10000 | – | – | – | > 50000 | > 50000 | > 50000 | > 50000 | > 50000 | > 50000 | 188 to 192 | Nc1ncnc2c1c(-c1ccc(N3CCS(=O)(=O)CC3)cc1)cn2C1SC(CO)C(O)C1O (stereo not drawn) [Compound 1e, 4-(4-(4-Amino-7-(3,4-dihydroxy-5-(hydroxymethyl)tetrahydrothiophen-2-yl)-7H-pyrrolo[2,3-d]pyrimidin-5-yl)phenyl)thiomorpholine 1,1-dioxide]
7 | 910 | > 10000 | – | > 10000 | > 10000 | – | 910 | – | 30100 | 30600 | 41600 | 10300 | 27500 | 15400 | 127 to 132 | CCS(=O)(=O)Nc1ccc(-c2cn(C3SC(CO)C(O)C3O)c3ncnc(N)c23)cc1 (stereo not drawn) [Compound 1f, N-(4-(4-Amino-7-(3,4-dihydroxy-5-(hydroxymethyl)tetrahydrothiophen-2-yl)-7H-pyrrolo[2,3-d]pyrimidin-5-yl)phenyl)ethanesulfonamide]
8 | 970 | 1070 | 1070 | 293 | 1260 | 2510 | 970 | 586 | 45500 | > 50000 | > 50000 | 6050 | > 50000 | > 50000 | 190 to 192 | CC#Cc1cn([C@@H]2S[C@H](CO)[C@@H](O)[C@H]2O)c2ncnc(N)c12 [Compound 1h, (2R,3R,4S,5R)-2-(4-Amino-5-(prop-1-yn-1-yl)-7H-pyrrolo[2,3-d]pyrimidin-7-yl)-5-(hydroxymethyl)tetrahydrothiophene-3,4-diol]
9 | 430 | 1340 | 1340 | 573 | 2980 | 5960 | 430 | 1150 | > 50000 | > 50000 | > 50000 | > 50000 | > 50000 | > 50000 | 161 to 162 | CCC#Cc1cn([C@@H]2S[C@H](CO)[C@@H](O)[C@H]2O)c2ncnc(N)c12 [Compound 1i, (2R,3R,4S,5R)-2-(4-Amino-5-(but-1-yn-1-yl)-7H-pyrrolo[2,3-d]pyrimidin-7-yl)-5-(hydroxymethyl)tetrahydrothiophene-3,4-diol]
10 | 1320 | > 10000 | – | 958 | > 10000 | – | 1320 | – | 29600 | > 50000 | > 50000 | > 50000 | > 50000 | > 50000 | 144 to 146 | CC(C)(C)C#Cc1cn([C@@H]2S[C@H](CO)[C@@H](O)[C@H]2O)c2ncnc(N)c12 [Compound 1j, (2R,3R,4S,5R)-2-(4-Amino-5-(3,3-dimethylbut-1-yn-1-yl)-7H-pyrrolo[2,3-d]pyrimidin-7-yl)-5-(hydroxymethyl)tetrahydrothiophene-3,4-diol]
11 | 1780 | > 10000 | – | 393 | > 10000 | – | 1780 | – | 30600 | > 50000 | > 50000 | 8310 | > 50000 | > 50000 | 166 to 168 | Nc1ncnc2c1c(C#CC1CC1)cn2[C@@H]1S[C@H](CO)[C@@H](O)[C@H]1O [Compound 1k, (2R,3R,4S,5R)-2-(4-Amino-5-(cyclopropylethynyl)-7H-pyrrolo[2,3-d]pyrimidin-7-yl)-5-(hydroxymethyl)tetrahydrothiophene-3,4-diol]
12 | – | – | – | – | – | – | – | – | 4900 | 1110 | 360 | 910 | 410 | 23400 | – | COc1cc([C@@H]2c3cc4c(cc3[C@@H](O[C@@H]3O[C@@H]5CO[C@@H](C)O[C@H]5[C@H](O)[C@H]3O)[C@H]3COC(=O)[C@H]23)OCO4)cc(OC)c1O [Etoposide, reference compound]
13 | > 10000 | > 10000 | – | 177 | > 10000 | – | – | – | – | – | – | – | – | – | – | Cc1ccc(NC(=O)Nc2cc(C(F)(F)F)ccc2F)cc1Nc1ccc2c(c1)NC(=O)/C2=C\c1ccc[nH]1 [GNF 5837, reference compound]
14 | – | – | – | – | – | – | – | – | 1100 | 200 | 300 | 200 | 100 | 3600 | – | Nc1ccn([C@@H]2O[C@H](CO)[C@@H](O)C2(F)F)c(=O)n1 [Gemcitabine, reference compound]
15 | > 10000 | 22 | 22 | > 10000 | < 10 | – | – | – | – | – | – | – | – | – | – | COc1ncc2cc(C(=O)Nc3cc(C(=O)NCc4cccc(Cl)c4)ccc3Cl)c(=O)[nH]c2n1 [TC-S 7004, reference compound]
16 | 80 | > 10000 | – | > 10000 | > 10000 | – | – | – | – | – | – | – | – | – | – | LH 846 [reference compound]

Row | Compound | IC50 (CK1δ) [nM] | IC50 (DYRK1B) [nM] | Ki (DYRK1B) [nM] | IC50 (TRKA) [nM] | IC50 (DYRK1A) [nM] | Ki (DYRK1A) [nM] | Ki (CK1δ) [nM] | Ki (TRKA) [nM] | IC50 (MDA-MB-231) [nM] | IC50 (HCT116) [nM] | IC50 (A549) [nM] | IC50 (SK-HEP-1) [nM] | IC50 (SNU638) [nM] | IC50 (PC-3) [nM] | melting point [°C]
17 | COc1ccc2c(c1)[nH]c1c(C)nccc12 [Harmine, reference compound] | – | – | – | > 10000 | – | – | – | – | – | – | – | – | – | – | –
